# In patent US9708665B2, “Spatial biomarker of disease and detection of spatial organization of cellular receptors” (The Regents of the University of California, priority 2009, dated 2017):
# “Also recorded” adds a separate entry of the source.
# Tests used:
# [1] = test system: MDA-MB-231 cells; test: ROCK inhibition: EphA2-ephrin-A1 radial transport on ephrin-A1 functionalized supported bilayers; type: cell-based, human; settings: inhibitor 1 to 50 μM, normalized to untreated samples
# Description: Radial Transport Analysis. Bright field microscopy was used to determine the area occupied by each cell. The corresponding areas in the fluorescence channel were then analyzed using the Radial Profile plugin from ImageJ, yielding a plot of normalized fluorescence intensities versus radial distance from the cell center. Plots were then normalized for cell size and averaged. Least squares analysis was then performed on the average normalized radial distribution using Origin 7.0 (OriginLab, Northampton, Mass.), and the slope of the calculated line was used as a score for propensity to radially transport ephrin-A1. ROCK Inhibition. Cells were detached from cell culture flasks using trypsin-EDTA and incubated at 37° C. for 2 hrs in media containing ROCK inhibitor Y-27632 (Sigma-Aldrich, Inc.) at concentrations ranging from 1-50 μM. […] Cells were cultured in drugged media for one hr on well plates containing Alexa Fluor 647-labeled ephrin-A1 functionalized supported bilayers. Cells were fixed, stained and imaged with epifluorescence microscopy as described above.
# [2] = test system: MDA-MB-231 cells; test: Trypan blue staining and cell counting (cell viability) under ROCK inhibitor treatment; type: cell-based, human; settings: 2 hrs at 37° C., 1-50 μM
# Description: ROCK Inhibition. Cells were detached from cell culture flasks using trypsin-EDTA and incubated at 37° C. for 2 hrs in media containing ROCK inhibitor Y-27632 (Sigma-Aldrich, Inc.) at concentrations ranging from 1-50 μM. […] Cells were cultured in drugged media for one hr on well plates containing Alexa Fluor 647-labeled ephrin-A1 functionalized supported bilayers. Cells were fixed, stained and imaged with epifluorescence microscopy as described above.
# [3] = test system: MDA-MB-231 cells; settings: binary mixture with ephrin-A1, 1 hr after plating
# Description: Surface Functionalization. After lipid bilayer deposition, substrates were incubated for 45 min with a 0.01% bovine serum albumin (BSA; Sigma-Aldrich, Inc.) solution to minimize non-specific protein adsorption. The supported membranes were then incubated with a 17 nM solution of streptavidin (Fisher Scientific, Pittsburgh, Pa.) for 45 minutes. For experiments that quantify protein surface density, streptavidin conjugated to Alexa Fluor 488 (Invitrogen Corp.) was substituted for the unlabeled protein. The supported membrane was then thoroughly rinsed and substrates were incubated for 45 min with a 50 nM solution of ephrin-A1 (R&D Systems, Minneapolis, Minn.), which had been biotinylated (Fisher Scientific) and conjugated to Alexa Fluor 594 or Alexa Fluor 647 (both from Invitrogen Corp.).
# Optical Microscopy. We used Nikon Eclipse TE2000-E and TE300 inverted microscopes with mercury arc lamps for epifluorescence illumination and 12 V, 100 W halogen lamps for bright field illumination. Total internal reflection fluorescence (TIRF) illumination was provided using a krypton/argon ion laser for 647 nm excitation, and an argon ion laser (Stabilite 2018 and Model 177 respectively, both from Spectra-Physics, Mountain View, Calif.) for 488 nm excitation. […]
Molecule,Eph-ephrin radial transport (capacity to transport EphA2-ephrin-A1 complexes to the center of the cell-supported membrane junction) [1],cell viability (Trypan blue staining and cell counting) [2],EphA2 organization with increasing RGD peptide density [3],cell-supported membrane contact area (RICM) with increasing RGD peptide density [3]
C[C@@H](N)[C@H]1CC[C@H](C(=O)Nc2ccncc2)CC1 [Y-27632],dose-dependent decrease; also recorded: dosage-dependent decrease,no adverse effects,,
[Arg-Gly-Asp-d-Phe-Lys(Biotin-PEG-PEG)] [cyclic RGD peptide],,,no change in EphA2 organization,progressively larger
